{"source": "patent US6642365B1", "about": "“Anti-(retro)viral conjugates of saccharides and acetamidino or guanidino compounds” (Yeda Research and Development Co. Ltd., priority 2001, dated 2003)", "key": {"HIV-1 NL4-3 [1]": {"test_system": "HIV-1 NL4-3", "experiment": "Virus-binding assay, p24 antigen bound to MT-4 cells", "type": "cell-based", "details": "0.5 μg/ml", "procedure": "MT4 cells (5×10^5) were incubated with supernatant containing 1×10^5 pg of p24 antigen of wild type HIV-1 in the presence of different concentrations of the test compound. One hour after infection, cells were washed 3 times with PBS and p24 antigen bound to the cells was determined by a commercial ELISA test (Coulter, Spain)."}, "CXCR4 [2]": {"target": "T1, CXCR4 (Homo sapiens, UniProt P61073)", "T1 sequence (P61073 whole entry)": "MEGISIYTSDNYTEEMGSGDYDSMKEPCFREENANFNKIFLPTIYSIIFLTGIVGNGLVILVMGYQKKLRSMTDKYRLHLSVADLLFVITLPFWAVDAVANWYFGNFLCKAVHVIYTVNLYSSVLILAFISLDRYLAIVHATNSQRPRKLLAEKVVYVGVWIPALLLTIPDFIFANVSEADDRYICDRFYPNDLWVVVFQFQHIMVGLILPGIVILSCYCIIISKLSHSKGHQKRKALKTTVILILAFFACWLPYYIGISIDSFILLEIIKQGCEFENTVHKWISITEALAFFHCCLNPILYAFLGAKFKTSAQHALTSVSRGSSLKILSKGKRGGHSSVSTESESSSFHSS", "experiment": "Inhibition of anti-CXCR4 mAb (12G5) binding, flow cytometry, SUP-T1 cells", "parameters": "endogenous in cells", "procedure": "(§1) Measurement of chemokine receptors CXCR4, CCR5 and the CD4 receptor on phytohemagglutinin (PHA)-activated PBMC was performed by flow cytometry analysis. Briefly, 0.5×10^6 cells were washed in ice-cold phosphate-buffered saline (PBS) and incubated for 30 minutes at 4÷C. with fluorescent labelled mAb 12G5 and 2D7 and Leu3a (Becton Dickinson, San Jose, Calif.) or with isotype control mAbs in the presence or absence of the test compound. Then, the cells were washed with ice-cold PBS and were fixed in PBS containing 1% formaldehyde. For each sample, 10,000 events were analysed in a FACScalibur™ system (Becton Dickinson). Data were acquired and analysed with CellQuest™ software (Becton Dickinson)."}, "[3]": {"test_system": "HIV-1 NL4-3 AMD3100-resistant", "type": "cell-based"}, "HIV-1 NL4-3 [4]": {"test_system": "HIV-1 NL4-3", "experiment": "Anti-HIV assay, MTT, MT-4 cells", "type": "cell-based", "procedure": "The HIV-1 strains NL4-3 and Ba-L and the CD4^+lymphocytic cell lines SUP-T1, MT-4 and MT-2 and P4-CCR5 MAGI cells were obtained from the MRC AIDS reagent program or the NIH, AIDS Research and Reference Reagent Program.\n(§2) The cells were infected by incubation with different titers of the HIV-1 strains for 2 hrs at 37° C. in the presence or absence of the AAC of the invention. Then the cells were washed from the virus by centrifugation at 400 g and the supernatants were discarded. The cells were resuspended in culture medium, supplemented with different concentrations of the test compounds. The cells were allowed to proliferate for 5 days, the number of viable cells was quantified by a tetrazolium-based colorimetric method (CellTiter 96® AQueous One solution Cell Proliferation Assay, Promega). Anti-HIV activity in P4-CCR5 MAGI cells was done as follows: cells (1×10^5/ml) were infected with 10 ng/ml of p24 antigen of HIV-1 Ba-L in the presence of varying concentrations of the test compound. 24 hours post infection, cells were washed twice with PBS and resuspended in the medium containing the appropriate drug concentration. Five days after infection the cells were washed with PBS and evaluated for β-galactosidase activity."}, "HIV-1 2D": {"test_system": "HIV-1 2D", "type": "cell-based", "procedure": "(§3) T-tropic HIV-1 laboratory strains IIIb, 2D as well as AZT-resistant and UC781-resistant strains were utilized in this study, along with clinical isolate (clade C). HIV-1 clinical isolate, resistant to AZT is a generous gift from Dr. Mark A. Wainberg, McGill AIDS Center, McGill University, Montreal, Canada.\n(§4) MT-2 or MT-4 cells were cultured in RPMI 1640 supplemented with 10% fetal calf serum (FCS), 0.2 mM glutamine and penicilline/streptomycin/nistatin mixture. The cells were propagated in 96-well tissue culture plates at the density of 5×10^4 cells per well. Peripheral mononuclear blood cells (PMBC) were separated from whole blood samples by centrifugation in Ficoll gradient for 10 min at 400 g. PMBC were cultured in the same medium in 24-well tissue culture plates at the density of about 10^6 cells per well."}, "CXCR4 [5]": {"target": "T1, CXCR4", "experiment": "Inhibition of anti-CXCR4 mAb (12G5) binding, flow cytometry, PHA-activated PBMC", "parameters": "endogenous in cells", "procedure": "as §1"}, "[6]": {"test_system": "MT-2 cells as well as PMBC lines ETH and IS", "details": "ratio CC50/EC50", "procedure": "as §2"}, "HIV-1 IIIB": {"test_system": "HIV-1 IIIB", "experiment": "Anti-HIV assay, syncytium formation and tetrazolium colorimetric assay", "type": "cell-based", "details": "range over IIIb, 2D, AZT resistant, UC781 resistant and clade C HIV-1", "procedure": "as §3, §4"}, "[7]": {"test_system": "HIV-1 clinical isolate (clade C)", "experiment": "Anti-HIV assay, syncytium formation and tetrazolium colorimetric assay", "type": "cell-based", "procedure": "as §3, §4"}, "Tat-TAR interaction [8]": {"target": "Tat-TAR interaction", "experiment": "Gel-shift inhibition of Tat R52 peptide binding to TAR RNA", "parameters": "species or system HIV-1", "details": "TAR RNA 2 nM; read-out: CI50 (the source's name)"}, "TAR RNA": {"test_system": "TAR RNA", "experiment": "L-arginine-Amberlite affinity column elution of TAR RNA", "type": "binding, HIV-1", "details": "concentration that elutes 50% of TAR RNA from L-arginine-Amberlite affinity column", "procedure": "The model Tat peptide (R52: […]) was prepared by the Weizmann Institute Chemical Services and was purified by reverse phase HPLC (C-18) (Lapidot et al., 1995). […] The RNA was transcriptionally labeled with α-^32P UTP, purified on a 12% polyacrylamide/7M urea gel (19:1 acrylamide:bis-acrylamide) and was eluted from the gel by 0.5M ammonium acetate, 10 mM magnesium acetate, 1 mM EDTA and 0.1% SDS. The sample was subjected to phenol extraction and the RNA was precipitated from 70% ethanol. Purified RNA was dissolved in diethyl pyrocarbonate-treated water (DEPC water), its concentration was determined by UV absorption at 260 nm and the specific radioactivity was determined by scintillation counting on a LS 1701 “Bruker” counter.\nThe L-arginine-Amberlite resin was prepared as follows: Carboxyl groups of Amberlite IRC-50 resin were covalently modified with ethanolamine using 1-(3-dimethylaminopropyl) 3-ethylcarbodiimide, a water-soluble coupler. The hydroxy ethyleneamide resin obtained was washed and dried, and L-arginine (12-16 μmols per ml of resin) was coupled to the hydroxy groups of the resin via an isourea moiety using a standard cyanogen bromide protocol. The final concentration of arginine residues was 12-16 μmol per ml of resin. The swollen L-arginino-Amberlite resin (200 μl) was packed into a plastic mini-column and equilibrated with buffer containing 40 mM Tris HCl, pH 7.5, 250 mM NaCl, 0.5 mM EDTA and 5 mM MgCl2 (buffer A). Approximately 1 ng of ^32P-UTP labeled TAR RNA in buffer A was loaded on the column. The column was eluted 3 to 5 times with 400 μl portions of buffer A, until no radioactivity was detected in the eluent. […] Each of the test compounds was dissolved in buffer A and passed through the column in 300 μl portions. Radioactivity of the eluates was determined by scintillation counting on a LS 1701 “Bruker” counter. CE50 values, the concentrations of inhibitors eluting 50% of the radioactive material from the column, were determined."}, "Tat-TAR interaction [9]": {"target": "Tat-TAR interaction", "experiment": "Gel-shift inhibition of Tat R52 peptide binding to TAR RNA", "parameters": "species or system HIV-1", "details": "TAR RNA 6 nM; 60 nM Tat R52; read-out: CI50 (the source's name)", "procedure": "The model Tat peptide (R52: […]) was prepared by the Weizmann Institute Chemical Services and was purified by reverse phase HPLC (C-18) (Lapidot et al., 1995). A 31-nt TAR RNA fragment (5′-GGCCAGAUCUGAGCCUGGGAGCUCUCUGGCC-3′) containing the sequence 18-44 of the HIV LTR (Aboul-Ela et al., 1995) was transcribed in vitro by T7 RNA polymerase (Promega) from a synthetic single strand DNA template containing the 17 base double-stranded T7 promoter (both DNA oligonucleotides were prepared by the Weizmann Institute Chemical Services). The RNA was transcriptionally labeled with α-^32P UTP, purified on a 12% polyacrylamide/7M urea gel (19:1 acrylamide:bis-acrylamide) and was eluted from the gel by 0.5M ammonium acetate, 10 mM magnesium acetate, 1 mM EDTA and 0.1% SDS. The sample was subjected to phenol extraction and the RNA was precipitated from 70% ethanol. Purified RNA was dissolved in diethyl pyrocarbonate-treated water (DEPC water), its concentration was determined by UV absorption at 260 nm and the specific radioactivity was determined by scintillation counting on a LS 1701 “Bruker” counter.\nTo study the affinity of the test compounds to TAR, gel-shift and gel-shift inhibition experiments were performed. The binding reaction mixtures (20 μl) contained ^32P-labeled TAR (18-44) RNA oligonucleotide (3-6 nM) and Tat R52 peptide (35-75 nM) in a binding buffer (10 mM Tris-HCl pH 7.5, 70 mM NaCl, 0.2 mM EDTA and 5% glycerol). The reaction mixtures were incubated for 10 minutes on ice and resolved by electrophoresis on a 10% non-denaturing polyacrylamide gel (40:1 acrylamide:bis-acrylamide) at 200V, for 3 h at 4° C. Gels were dried and visualized by autoradiography. Quantitations were obtained by optical densitometry of films. Alternatively, results were visualized by exposing the wet gels to Fuji phosphoimager plates, which were read on a “Storm 820” (Molecular Dynamics) phosphoimager. Different concentrations of TAR RNA (6,12 and 20 nM) were titrated with various concentrations of Tat R52 in the binding reactions.\nBinding inhibition by the monosaccharide derivatives was measured by adding several concentrations of each compound to reaction mixtures containing 60 nM Tat 52 and 6 nM ^32P TAR, attaining 100% binding of Tat TAR in the absence of inhibitors (Lapidot et al., 1995)."}, "Tat-TAR complex": {"target": "Tat-TAR complex", "details": "cited from earlier work"}, "HIV Rev-RRE interaction": {"test_system": "HIV Rev-RRE interaction", "details": "at 100 μM; cited from earlier work"}}, "note": "Entries after “also recorded” stand apart in the source; their conditions may differ. Read-outs that look alike come from different tables or passages of the source.", "data": [{"molecule": "SDF-1α", "values": [{"measurement": "binding of HIV-1 to MT-4 cells", "setting": "HIV-1 NL4-3 [1]", "value": "did not inhibit the binding"}, {"measurement": "IC50", "setting": "CXCR4 [2]", "value": 0.013, "unit": "µM"}, {"measurement": "EC50", "setting": "[3]; MTT assay, read-out: EC50 HIV-1 AMD 3100res", "value": "> 1", "unit": "µM"}, {"measurement": "cross-resistance of NL4-3 AMD3100-resistant virus", "setting": "[3]; relative to NL4-3", "value": "> 25", "unit": "fold"}, {"measurement": "EC50", "setting": "HIV-1 NL4-3 [4]", "value": 0.04, "unit": "µM"}]}, {"molecule": "Hexa/penta-argininamido-neomycin B conjugate [NeoR]", "values": [{"measurement": "EC50", "setting": "HIV-1 2D", "value": 4, "unit": "µM"}, {"measurement": "antiviral effect in the presence of AZT", "setting": "HIV-1 2D", "value": "additive"}, {"measurement": "binding of 12G5 mAb to PHA-activated PBMC", "setting": "CXCR4 [5]; 5 μM", "value": "suppressed significantly more than in the presence of 5 μM R3G; also recorded: suppressed"}, {"measurement": "IC50", "setting": "CXCR4 [5]; read-out: IC50-12G5 PMBC", "value": 2.4, "unit": "µM"}, {"measurement": "affinity for CXCR4", "setting": "CXCR4 [2]; inhibition of 12G5 binding to SUP-T1 cells or PMBC", "value": "high affinity"}, {"measurement": "TI50", "setting": "[6]", "value": "60-85"}, {"measurement": "EC50", "setting": "HIV-1 IIIB", "value": "3 to 4", "unit": "µM"}, {"measurement": "inhibition of virus growth", "setting": "[7]; MT-2 cells infected in presence of 20 μM R3G or 10 μM NeoR, then 3 days without AAC", "value": 60, "unit": "%"}, {"measurement": "EC50", "setting": "[7]; average of two independent experiments in duplicates", "value": 3, "unit": "µM"}]}, {"molecule": "Cl.N=C(N)NCCC[C@H](N)C(=O)O", "note": "[Arginine HCl, reference compound]", "values": [{"measurement": "IC50", "setting": "Tat-TAR interaction [8]", "value": 4000, "unit": "µM"}, {"measurement": "CE50", "setting": "TAR RNA", "value": 1500, "unit": "mM"}, {"measurement": "IC50", "setting": "Tat-TAR interaction [9]", "value": 38000, "unit": "µM"}]}, {"molecule": "CO[C@@H]1O[C@H](CC(N)=O)C(O)[C@H](O)[C@@H]1O", "note": "(stereo partly drawn) [compound 8, Methyl 6-deoxy-α-D-mannoheptopyranuronic acid amide]", "values": [{"measurement": "melting point", "value": 177, "unit": "°C"}]}, {"molecule": "native Tat: HIV trans-activator of transcription protein", "values": [{"measurement": "Kd", "setting": "Tat-TAR complex; comparison value, read-out: Kd of the native Tat-TAR complex", "value": "0.006 to 0.012", "unit": "µM"}]}, {"molecule": "NC[C@@H]1O[C@H](O[C@H]2[C@@H](O)[C@H](O[C@@H]3[C@@H](O)[C@H](N)C[C@H](N)[C@H]3O[C@H]3O[C@H](CN)[C@@H](O)[C@H](O)[C@H]3N)O[C@@H]2CO)[C@H](N)[C@@H](O)[C@@H]1O", "note": "[Neomycin B, reference compound]", "values": [{"measurement": "concentration range of inhibitory effect on Tat binding to TAR", "setting": "Tat-TAR complex; in vitro", "value": "1 to 100", "unit": "µM"}]}, {"molecule": "gentamicin", "values": [{"measurement": "inhibition of Rev-RRE interaction", "setting": "HIV Rev-RRE interaction", "value": "do not display any inhibition"}]}]}
